Consider one compound from patent publication US7132287B2, “Method for neural stem cell differentiation using 5HT-1A agonists” (Psychiatric Genomics, Inc., priority 2001, dated 2006).

Values joined by “and” are separate entries in the source; they are usually repeats but may differ in a detail not shown here. Equal entries are not always repeated.

This test concerns cortical neural stem cells. Description: Neuronal differentiation of cortical neural stem cells (β tubulin III / TuJ-1 immunofluorescence). Type of test: cell-based, rat. The settings on record: 1 μM Buspirone alone, 6 days. An excerpt: Isolation of cortical and striatal stem cells. Timed pregnant Sprague Dawley rats obtained from Taconic at embryonic age E14-E15 were sacrificed as described above and the uterus removed and placed in ice cold PBS in a 10 cm petridish. After rinsing the uterus in PBS, embryos were removed from the uterus, rinsed in PBS and collected in cold HBSS (buffered with HEPES and sodium bicarbonate) in a 10 cm petridish and placed on ice.
The cortex and striatum was dissected under a microscope and collected in a 15 ml tube of HBSS, on ice. Removal of meninges is not possible at this age, and no attempt was made to do so. If the dissected tissue was in large enough chunks and settle to the bottom of the tube, no centrifugation was performed. Alternatively, the tube was centrifuged at 1000 rpm for 5 minutes to pellet the tissue. Following centrifugation, the 15 ml tube containing the tissue was sprayed with 70% ethanol and taken into the sterile hood.
The HBSS was aspirated and replaced with 10 ml of DMEM/F12. The tissue was collected at the bottom of the tube by gravity or centrifugation, medium was aspirated, and 1 ml of DMEM/F12 was to the tissue. Cells were dissociated by trituration as described above, followed by addition of 5 ml of DMEM/F12 and a second round of trituration. […] The tubes were placed standing 5–10 minutes in the hood to allow larger particles and meninges to settle. While the meninges were settling, a cell count was made. 10 μl of the cell suspension is diluted with trypan blue and counted in a hemocytometer. Cells were counted in the four outer chambers with the larger squares, and cell count calculated assuming that the volume enclosed in each of the chambers was […].
Plating, expansion and passaging of cortical and striatal stem cells A generous amount of the triturated cell suspension was left in the original 15 ml tube to avoid fibroblast contamination in cultures. About 4–5 ml of the 6 ml of cells suspension was used for plating. Cells were plated at a concentration of approximately 1×10^6 per 10 cm dish. This culture is designated P0 (passage 0).
Following plating cells were expanded for about 3–4 days. The cultures were never permitted to reach more than 70% confluency. Cultures were then passaged as follows: 5 ml of HBSS was added to each 10 cm dish and the cells incubated at 37° C. for 15–45 minutes, or until sufficient numbers of the stem cells were rounded up. It is not expected that all cells in the culture will round up as there are several cell types in the culture at P0. The pH of the HBSS should be neutral at all times during this incubation. Cells were then removed from the dish by pipetting with a 5 ml pipette, or by scraping with a policeman, collected in a 15 or 50 ml conical tube, and centrifuged at 1000 g for 5 minutes. Cells were gently re-suspended in medium, counted, and plated at a density of about 1×10^6 per 10 cm dish.
Drug treatments. Stem cells obtained as described above were treated with drugs and subjected to differentiation protocols in the second passage. Cells were plated at a density of 1×10^4 cells per well of a 12-well petridish (Falcon).
Drug treatments were started on the next day. […] The WAY 100635 antagonist compound was used simultaneously with buspirone or serotonin in the blocking experiments. Positive and negative control cultures were those treated with BDNF and FGF alone, respectively.
Cells were treated with the designated concentrations of drugs or combinations thereof, daily, and were fed every alternate day with fresh medium. Experiments were maintained for about 6–10 days in most cases.

Setting [1] is: TuJ-1 staining, listed as Buspirone.

`O=C1CC2(CCCC2)CC(=O)N1CCCCN1CCN(c2ncccn2)CC1` [buspirone, 8-[4-[4-(2-pyrimidinyl)-1-piperazinyl]butyl]-8-azaspiro[4,5]decane-7,9-dione]: the “Total No. of Cells” value was 1168 and 1228. Besides, the “% Fluorescent Cells” value (TuJ-1 staining) is on record as “significant neuronal differentiation”. Under setting [1], the “% Fluorescent Cells” value was 27.27% and 20.15%; the “No. Fluorescent Cells” value was 320 and 260.
